Assay results: patent publication US12421225B2, “Heteroaromatic amide derivative and medicament containing the same” (KAKEN PHARMACEUTICAL CO., LTD., priority 2018, dated 2025)

How the values were obtained:
[1] = biological target: human Nav1.5 (Homo sapiens (Human), UniProt Q14524); assay: Human Nav1.5 inhibitory activity evaluation (automated patch clamp QPatch16X, HEK293 cells stably expressing human Nav1.5); type: cell-based; settings: HEK293 cells stably expressing human Nav1.5, automated patch clamp QPatch16X
Sequence of human Nav1.5 (Q14524 whole entry): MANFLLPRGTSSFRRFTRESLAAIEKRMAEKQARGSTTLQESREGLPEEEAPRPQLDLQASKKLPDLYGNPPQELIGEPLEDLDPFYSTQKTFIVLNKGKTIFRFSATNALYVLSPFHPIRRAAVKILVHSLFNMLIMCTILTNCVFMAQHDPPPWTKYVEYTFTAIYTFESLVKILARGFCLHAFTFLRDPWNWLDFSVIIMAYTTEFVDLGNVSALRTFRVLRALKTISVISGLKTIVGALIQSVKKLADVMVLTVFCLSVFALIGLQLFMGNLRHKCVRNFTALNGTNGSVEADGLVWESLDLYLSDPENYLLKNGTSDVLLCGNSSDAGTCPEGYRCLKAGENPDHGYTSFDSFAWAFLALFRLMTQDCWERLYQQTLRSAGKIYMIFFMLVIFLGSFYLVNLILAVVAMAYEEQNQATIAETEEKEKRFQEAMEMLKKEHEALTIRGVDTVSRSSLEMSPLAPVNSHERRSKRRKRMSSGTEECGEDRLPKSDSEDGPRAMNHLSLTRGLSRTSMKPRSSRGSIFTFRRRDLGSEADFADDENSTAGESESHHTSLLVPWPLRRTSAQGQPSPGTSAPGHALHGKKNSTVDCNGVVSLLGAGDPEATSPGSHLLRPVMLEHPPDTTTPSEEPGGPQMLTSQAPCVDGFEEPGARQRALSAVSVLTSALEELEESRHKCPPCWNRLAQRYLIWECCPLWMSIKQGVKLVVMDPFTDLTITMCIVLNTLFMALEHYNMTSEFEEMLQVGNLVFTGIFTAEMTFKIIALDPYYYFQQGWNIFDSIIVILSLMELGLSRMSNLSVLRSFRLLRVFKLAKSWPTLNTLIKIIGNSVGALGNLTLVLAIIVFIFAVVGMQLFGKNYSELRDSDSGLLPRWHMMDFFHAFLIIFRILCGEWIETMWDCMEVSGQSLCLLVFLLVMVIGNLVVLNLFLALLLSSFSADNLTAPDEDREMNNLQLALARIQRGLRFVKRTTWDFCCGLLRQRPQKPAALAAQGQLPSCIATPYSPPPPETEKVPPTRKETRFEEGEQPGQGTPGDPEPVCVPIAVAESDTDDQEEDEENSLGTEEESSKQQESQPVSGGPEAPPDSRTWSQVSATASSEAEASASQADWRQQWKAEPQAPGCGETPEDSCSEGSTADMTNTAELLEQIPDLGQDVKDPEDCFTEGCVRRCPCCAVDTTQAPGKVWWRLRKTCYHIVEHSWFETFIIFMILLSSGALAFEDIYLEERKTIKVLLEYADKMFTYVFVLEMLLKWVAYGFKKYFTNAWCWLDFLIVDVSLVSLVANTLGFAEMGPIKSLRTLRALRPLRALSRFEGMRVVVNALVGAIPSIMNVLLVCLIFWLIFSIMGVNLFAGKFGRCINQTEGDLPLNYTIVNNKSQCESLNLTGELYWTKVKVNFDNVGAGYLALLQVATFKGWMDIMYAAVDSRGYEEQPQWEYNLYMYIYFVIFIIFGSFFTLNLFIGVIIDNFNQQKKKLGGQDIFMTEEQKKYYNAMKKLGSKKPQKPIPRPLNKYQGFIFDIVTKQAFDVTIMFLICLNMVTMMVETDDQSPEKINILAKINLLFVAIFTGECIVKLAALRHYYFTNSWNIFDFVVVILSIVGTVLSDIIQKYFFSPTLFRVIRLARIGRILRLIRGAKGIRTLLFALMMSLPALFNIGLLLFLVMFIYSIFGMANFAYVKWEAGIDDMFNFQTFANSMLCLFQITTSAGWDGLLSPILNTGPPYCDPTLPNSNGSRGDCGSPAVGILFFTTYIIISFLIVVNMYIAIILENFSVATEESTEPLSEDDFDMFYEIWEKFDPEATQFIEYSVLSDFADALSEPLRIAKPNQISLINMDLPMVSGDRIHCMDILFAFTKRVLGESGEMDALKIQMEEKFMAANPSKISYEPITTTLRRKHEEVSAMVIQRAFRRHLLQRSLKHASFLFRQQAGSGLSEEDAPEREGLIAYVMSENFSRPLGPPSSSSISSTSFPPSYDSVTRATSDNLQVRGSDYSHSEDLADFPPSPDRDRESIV
Summary of the method: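 Whole-cell automated patch clamp at room temperature on HEK293 stably expressing human Nav1.5; holding −80 mV, 20 consecutive cardiomyocyte action-potential-like test pulses before and after compound (0.1% DMSO). Inhibition measured on inward current at 20th pulse; IC50 from concentration-response curve.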

[2] = biological target: human Nav1.7 (Homo sapiens (Human), UniProt Q15858); assay: Human Nav1.7 inhibitory activity evaluation (automated patch clamp QPatch16X, HEK293A cells stably expressing human Nav1.7 and human Navβ1); type: cell-based; settings: HEK293A cells stably expressing human Nav1.7 and human Navβ1, automated patch clamp QPatch16X
Sequence of human Nav1.7 (Q15858 whole entry): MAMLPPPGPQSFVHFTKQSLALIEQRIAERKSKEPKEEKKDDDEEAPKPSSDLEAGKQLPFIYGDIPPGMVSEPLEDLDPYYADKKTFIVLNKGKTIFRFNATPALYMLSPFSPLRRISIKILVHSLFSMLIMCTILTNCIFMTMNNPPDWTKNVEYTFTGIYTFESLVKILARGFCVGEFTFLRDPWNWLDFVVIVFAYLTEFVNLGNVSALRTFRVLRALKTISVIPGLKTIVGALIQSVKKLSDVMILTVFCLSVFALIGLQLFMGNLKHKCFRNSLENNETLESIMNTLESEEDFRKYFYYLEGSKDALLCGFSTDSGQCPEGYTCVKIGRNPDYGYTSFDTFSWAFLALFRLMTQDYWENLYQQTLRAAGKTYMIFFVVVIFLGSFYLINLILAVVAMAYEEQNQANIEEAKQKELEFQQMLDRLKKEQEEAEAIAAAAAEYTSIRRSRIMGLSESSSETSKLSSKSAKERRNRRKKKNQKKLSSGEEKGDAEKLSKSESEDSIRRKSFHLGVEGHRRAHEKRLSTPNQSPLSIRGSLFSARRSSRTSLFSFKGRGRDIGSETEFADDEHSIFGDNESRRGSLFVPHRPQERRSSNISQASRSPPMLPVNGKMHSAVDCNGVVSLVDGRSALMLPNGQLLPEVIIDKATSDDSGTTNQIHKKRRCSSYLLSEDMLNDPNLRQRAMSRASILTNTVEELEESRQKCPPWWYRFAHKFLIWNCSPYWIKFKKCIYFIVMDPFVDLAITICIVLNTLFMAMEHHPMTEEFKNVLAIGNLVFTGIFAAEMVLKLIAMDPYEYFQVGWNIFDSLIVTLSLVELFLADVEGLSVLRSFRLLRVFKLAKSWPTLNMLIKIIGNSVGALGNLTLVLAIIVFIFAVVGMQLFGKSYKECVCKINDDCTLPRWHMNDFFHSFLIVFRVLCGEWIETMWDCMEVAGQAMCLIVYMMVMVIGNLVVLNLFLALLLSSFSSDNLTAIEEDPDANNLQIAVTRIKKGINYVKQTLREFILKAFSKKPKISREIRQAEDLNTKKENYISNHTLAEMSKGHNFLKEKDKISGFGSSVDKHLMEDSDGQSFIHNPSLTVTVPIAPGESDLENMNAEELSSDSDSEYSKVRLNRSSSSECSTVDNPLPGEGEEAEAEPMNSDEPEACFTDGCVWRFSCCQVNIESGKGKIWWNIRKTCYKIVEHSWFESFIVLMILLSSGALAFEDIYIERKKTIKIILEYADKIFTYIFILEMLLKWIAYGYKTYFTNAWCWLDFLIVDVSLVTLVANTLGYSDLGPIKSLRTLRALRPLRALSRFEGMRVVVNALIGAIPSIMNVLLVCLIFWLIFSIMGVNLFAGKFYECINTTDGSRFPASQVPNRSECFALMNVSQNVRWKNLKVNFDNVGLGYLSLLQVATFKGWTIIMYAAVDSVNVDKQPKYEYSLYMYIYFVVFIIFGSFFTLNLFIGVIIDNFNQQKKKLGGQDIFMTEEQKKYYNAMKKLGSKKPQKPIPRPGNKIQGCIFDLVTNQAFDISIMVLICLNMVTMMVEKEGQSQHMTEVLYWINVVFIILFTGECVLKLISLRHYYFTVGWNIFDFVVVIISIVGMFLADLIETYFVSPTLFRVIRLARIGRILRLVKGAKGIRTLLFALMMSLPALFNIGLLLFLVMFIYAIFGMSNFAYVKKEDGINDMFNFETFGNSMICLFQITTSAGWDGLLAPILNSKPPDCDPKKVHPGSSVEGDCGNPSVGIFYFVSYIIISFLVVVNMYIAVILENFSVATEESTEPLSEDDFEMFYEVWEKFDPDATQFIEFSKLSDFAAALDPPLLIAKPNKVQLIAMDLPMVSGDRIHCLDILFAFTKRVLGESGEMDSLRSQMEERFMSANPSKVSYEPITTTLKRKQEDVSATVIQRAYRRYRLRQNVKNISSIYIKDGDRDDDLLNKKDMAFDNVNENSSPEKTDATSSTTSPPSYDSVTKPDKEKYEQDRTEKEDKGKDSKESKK
Sequence of human Nav1.7 (Q07699 19-218 partner): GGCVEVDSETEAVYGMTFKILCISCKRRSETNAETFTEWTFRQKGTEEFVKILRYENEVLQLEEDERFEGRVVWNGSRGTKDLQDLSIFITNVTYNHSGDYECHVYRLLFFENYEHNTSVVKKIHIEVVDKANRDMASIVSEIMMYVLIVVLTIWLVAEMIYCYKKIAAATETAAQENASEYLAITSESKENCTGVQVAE
Summary of the method: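 QPatch16X whole-cell recordings at room temperature from HEK293A cells stably expressing human Nav1.7 with Navβ1, CsF-based internal solution, pH 7.4 external, 0.1% DMSO. From −100 mV holding, protocol included a 15 s hold at a potential inactivating ~30-40% of channels; IC50 from inward current at the second −10 mV pulse.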

Compound `Cc1ccc(C2Cn3cc(C(=O)N[C@H]4COc5ccccc5C4)nc3CN2)s1` (stereo partly drawn) [Example 43] has an IC50 [1] of no less than 3 µM and an IC50 [2] of less than 10 µM.

In the case of `O=C(N[C@H]1COc2ccccc2C1)c1cn2c(n1)CNC(c1cccc(C(F)(F)F)n1)C2` (stereo partly drawn) [Example 46], the IC50 [1] is reported as 1 to 3 µM and the IC50 [2] is reported as less than 10 µM.

In the case of `CN1Cc2nc(C(=O)N[C@H]3COc4cccc(F)c4C3)cn2CC1c1cccc(C(F)(F)F)n1` (stereo partly drawn) [Example 47], the IC50 [1] is reported as no less than 3 µM and the IC50 [2] is reported as less than 10 µM.

`CC(C)CCC1Cn2cc(C(=O)N[C@H]3COc4ccccc4C3)nc2CN1` (stereo partly drawn) [Example 49] showed an IC50 [1] of no less than 3 µM and an IC50 [2] of less than 10 µM.

For `O=C(N[C@H]1COc2ccccc2C1)c1cn2c(n1)CNC(CCC1CCCC1)C2` (stereo partly drawn) [Example 51], the IC50 [1] was 1 to 3 µM and the IC50 [2] was less than 1 µM.

Work on `CN1Cc2nc(C(=O)N[C@H]3COc4ccccc4C3)cn2CC1CCC1CCCC1` (stereo partly drawn) [Example 52] yielded an IC50 [1] of 1 to 3 µM and an IC50 [2] of less than 1 µM.

With `O=C(N[C@H]1COc2ccccc2C1)c1cn2c(n1)CNC(CCCc1ccccc1)C2` (stereo partly drawn) [Example 55] the IC50 [1] was 1 to 3 µM and the IC50 [2] was less than 1 µM.

In the case of `CN1Cc2nc(C(=O)NC3COc4ccccc4C3)cn2CC1c1ccccc1` (stereo not drawn) [Example 57], the IC50 [1] is reported as less than 1 µM and the IC50 [2] is reported as less than 1 µM.

With `CN1Cc2nc(C(=O)NCCc3ccccc3)cn2CC1c1ccccc1` (stereo not drawn) [Example 58] the IC50 [1] was no less than 3 µM and the IC50 [2] was less than 10 µM.

`O=C(N[C@H]1COc2ccccc2C1)c1cn2c(n1)CNC(C1CCCC1)C2` (stereo partly drawn) [Example 59] was tested, and the IC50 [1] was no less than 3 µM and the IC50 [2] was less than 10 µM.

`CN1Cc2nc(C(=O)NCCc3cccc(N4CCOCC4)c3)cn2CC1c1ccccc1` (stereo not drawn) [Example 62] was tested, and the IC50 [1] was no less than 3 µM and the IC50 [2] was less than 10 µM.

`O=C(N[C@H]1COc2ccccc2C1)c1nc2n(c1-c1ccccc1)CCOC2` [Example 64] gave an IC50 [1] of less than 1 µM and an IC50 [2] of less than 10 µM.

In the case of `COc1cccc(-c2c(C(=O)N[C@H]3COc4ccc(Cl)cc4C3)nc3n2CCOC3)n1` [Example 65], the IC50 [1] is reported as less than 1 µM and the IC50 [2] is reported as less than 1 µM.

`O=C(N[C@H]1COc2ccc(Cl)cc2C1)c1nc2n(c1-c1ccccn1)CCOC2` [Example 66] was tested, and the IC50 [1] was less than 1 µM and the IC50 [2] was less than 10 µM.

`O=C(N[C@H]1COc2ccc(C(F)(F)F)cc2C1)c1nc2n(c1-c1ccccn1)CCOC2` [Example 67] gave an IC50 [1] of less than 1 µM and an IC50 [2] of less than 1 µM.

In the case of `Cc1ccccc1C1CCn2nc(C(=O)N[C@H]3COc4ccccc4C3)cc2C1` (stereo partly drawn) [Example 68], the IC50 [1] is reported as no less than 3 µM and the IC50 [2] is reported as less than 10 µM.

Work on `O=C(N[C@H]1COc2ccc(Br)cc2C1)c1cc2n(n1)CCC(c1ccccc1F)O2` (stereo partly drawn) [Example 71] yielded an IC50 [1] of less than 1 µM and an IC50 [2] of less than 1 µM.

`N#Cc1ccc2c(c1)C[C@@H](NC(=O)c1cc3n(n1)CCC(c1ccccc1C#N)O3)CO2` (stereo partly drawn) [Example 72] gave an IC50 [1] of no less than 3 µM and an IC50 [2] of less than 1 µM.

In the case of `COc1ncccc1C1CCn2nc(C(=O)N[C@H]3COc4ccc(C#N)cc4C3)cc2O1` (stereo partly drawn) [Example 75], the IC50 [1] is reported as no less than 3 µM and the IC50 [2] is reported as less than 1 µM.

With `CCc1ccc2c(c1)C[C@@H](NC(=O)c1cc3n(n1)CCC(c1ccccc1F)O3)CO2` (stereo partly drawn) [Example 76] the IC50 [1] was no less than 3 µM and the IC50 [2] was less than 1 µM.

`O=C(NC1COc2cccc(Cl)c2C1)c1cc2n(n1)CCC(c1ccccc1)O2` (stereo not drawn) [Example 77] was tested, and the IC50 [1] was no less than 3 µM and the IC50 [2] was less than 1 µM.

`O=C(NC1COc2cccc(OC(F)(F)F)c2C1)c1cc2n(n1)CCC(c1ccccc1)O2` (stereo not drawn) [Example 78] was tested, and the IC50 [1] was no less than 3 µM and the IC50 [2] was less than 10 µM.

With `CCOc1cccc(CCNC(=O)c2cc3n(n2)CCC(c2ccccc2)O3)c1` (stereo not drawn) [Example 79] the IC50 [1] was no less than 3 µM and the IC50 [2] was less than 10 µM.

For `O=C(N[C@H]1COc2ccc(-c3ccncc3)cc2C1)c1cc2n(n1)CCC(c1ccccc1F)O2` (stereo partly drawn) [Example 80], the IC50 [1] was no less than 3 µM and the IC50 [2] was less than 1 µM.

In the case of `O=C(N[C@H]1COc2ccc(-c3ccccn3)cc2C1)c1cc2n(n1)CCC(c1ccccc1F)O2` (stereo partly drawn) [Example 81], the IC50 [1] is reported as no less than 3 µM and the IC50 [2] is reported as less than 1 µM.

With `CCOCc1ccc2c(c1)C[C@@H](NC(=O)c1cc3n(n1)CCC(c1ccccc1F)O3)CO2` (stereo partly drawn) [Example 83] the IC50 [1] was 1 to 3 µM and the IC50 [2] was less than 1 µM.

In the case of `O=C(N[C@H]1COc2ccc(COC3CCOCC3)cc2C1)c1cc2n(n1)CCC(c1ccccc1F)O2` (stereo partly drawn) [Example 84], the IC50 [1] is reported as no less than 3 µM and the IC50 [2] is reported as less than 10 µM.

Compound `CC1CCn2nc(C(=O)N[C@H]3COc4ccc(Cl)cc4C3)cc2O1` (stereo partly drawn) [Example 85] has an IC50 [1] of no less than 3 µM and an IC50 [2] of less than 1 µM.

In the case of `C[C@H]1CCn2nc(C(=O)N[C@H]3COc4ccc(Cl)cc4C3)cc2O1` [Example 86], the IC50 [1] is reported as no less than 3 µM and the IC50 [2] is reported as less than 1 µM.

Compound `C[C@@H]1CCn2nc(C(=O)N[C@H]3COc4ccc(Cl)cc4C3)cc2O1` [Example 87] has an IC50 [1] of no less than 3 µM and an IC50 [2] of less than 10 µM.
